Results on four compounds are retold here after patent publication US5273978A, “Optically active isoindoline derivatives, their production and use” (Takeda Chemical Industries, Ltd., priority 1991, dated 1993).

One experiment has as its system Male rats (SD/JCL). Briefly: Antianxiety action (Vogel method, anticonflict water drinking test in rats). The format is in vivo, rat (SD/JCL). As to conditions: for minimal effective dose: Rattus norvegicus, rats; for antianxiety action stronger than that of the corresponding racemic modification: from MED values of Table 2.
A further experiment concerns benzodiazepine receptor. Briefly: Inhibition of [3H]diazepam binding to benzodiazepine receptor (crude mitochondrial fraction of rat cerebral cortex). More on the design: species or system male SD rats. As to conditions: in words. The procedure: The affinity of the compound of the present invention to a benzodiazepine receptor was investigated using radioactive [^3 H] diazepam.
Capability of specific binding to a benzodiazepin receptor was determined in accordance with the method described in the literature (Nature, 266, 732 (1977); European J. Pharmacol., 48, 263 (1978). Specifically, a crude mitochondrial fraction obtained from the cerebral cortex of male SD rats at 9 to 10 weeks of age was suspended in 50 mM Tris-HCL buffer (pH 7.4), and incubated, together with several concentrations of the subject drug and ^3 H-diazepam (final concentration 2 nM), at 4° C. for 20 minutes. This suspension was then filtered through a Whatman GF/B glass fiber filter, and the ^3 H-diazepam radioactivity on the filter was measured using a liquid scintillation counter. The concentration of the subject drug at which ^3 H-diazepam binding was inhibited by 50% was taken as the IC50 value.
Results from a typical compounds (VI) and (VIII) of the present invention and the corresponding racemic modifications thereof are shown in Table 1.

Where [1] appears, read: po, 0.5 h, p.o., 30 minutes after dosing, water drinking frequency in 3 minutes, read-out: Minimum Effective Dose (MED), antianxiety action (Vogel method).
Where [2] appears, read: ip, 0.05 h, i.p., water drinking frequency in 3 minutes, read-out: Minimum Effective Dose (MED), antianxiety action (Vogel method).

Read-outs that look alike come from different tables or passages of the source. Bounds are passed on as bounds.

`O=C(CC1c2ccccc2C(=O)N1c1ccc2ccc(Cl)nc2n1)N1CCC2(CC1)OCCO2` (racemic) [Racemic modification of (VI), reference compound]: the minimal effective dose with Male rats (SD/JCL) (setting [1]) is 10 mg/kg. Moreover, the “affinity to the benzodiazepin receptor versus racemic modification” value with benzodiazepine receptor is “nearly fully potent action”.
As for `O=C(C[C@H]1c2ccccc2C(=O)N1c1ccc2ccc(Cl)nc2n1)N1CCC2(CC1)OCCO2` [(VI), (S)-(+)-2-(7-chloro-1,8-naphthylidin-2yl)-3-[(1,4-dioxa-8-azaspiro[4.5]dec-8-yl)carbonylmethyl]isoindolin-1-one], the minimal effective dose in the experiment on Male rats (SD/JCL) (po, 0.5 h, P.O., read-out: MED for antianxiety action in rats) was no more than 1.25 mg/kg; in the experiment with Male rats (SD/JCL) (setting [1]) it was 1.25 mg/kg. The “antianxiety action stronger than that of the corresponding racemic modification” value in the experiment with Male rats (SD/JCL) is given as 8 times. The “affinity to the benzodiazepin receptor versus racemic modification” value with benzodiazepine receptor was “no enhanced affinity”.
`O=C(CC1c2ccccc2C(=O)N1c1ccc2ccc(Cl)nc2n1)N1CCC(O)CC1` (racemic) [Racemic modification of (VIII), reference compound]: in the experiment on Male rats (SD/JCL) (setting [2]), the minimal effective dose was 20 mg/kg.
On to `O=C(C[C@H]1c2ccccc2C(=O)N1c1ccc2ccc(Cl)nc2n1)N1CCC(O)CC1` [(VIII), (S)-(+)-2-(7-chloro-1,8-naphthylidin-2-yl)-3-[(4-hydroxypiperidin-1-yl)carbonylmethyl]isoindolin-1-one], for which, in the experiment with Male rats (SD/JCL) (setting [2]), the minimal effective dose is 5 mg/kg. Also, the “antianxiety action stronger than that of the corresponding racemic modification” value with Male rats (SD/JCL) is given as 4 times.
